In brackets after ≈: the same amount, converted by molar mass. Where two headings read alike, the source gives them in different places.
Legend:
M. avium = assay: Spectrum (unpublished data); format: cell-based
M. avium complex (MAC) = assay: Spectrum of activity MIC, MOTT, agar proportion method; format: cell-based; settings: Mycobacterium avium; three isolates
[1] = target: T1, Serotonin 5-HT transporter (Homo sapiens, UniProt P31645); assay: CEREP transporter binding, 5-HT; settings: tested at 10 μM; read-out: inhibition of control specific binding
T1 construct: CEREP (contract testing)
T1 sequence (P31645 whole entry): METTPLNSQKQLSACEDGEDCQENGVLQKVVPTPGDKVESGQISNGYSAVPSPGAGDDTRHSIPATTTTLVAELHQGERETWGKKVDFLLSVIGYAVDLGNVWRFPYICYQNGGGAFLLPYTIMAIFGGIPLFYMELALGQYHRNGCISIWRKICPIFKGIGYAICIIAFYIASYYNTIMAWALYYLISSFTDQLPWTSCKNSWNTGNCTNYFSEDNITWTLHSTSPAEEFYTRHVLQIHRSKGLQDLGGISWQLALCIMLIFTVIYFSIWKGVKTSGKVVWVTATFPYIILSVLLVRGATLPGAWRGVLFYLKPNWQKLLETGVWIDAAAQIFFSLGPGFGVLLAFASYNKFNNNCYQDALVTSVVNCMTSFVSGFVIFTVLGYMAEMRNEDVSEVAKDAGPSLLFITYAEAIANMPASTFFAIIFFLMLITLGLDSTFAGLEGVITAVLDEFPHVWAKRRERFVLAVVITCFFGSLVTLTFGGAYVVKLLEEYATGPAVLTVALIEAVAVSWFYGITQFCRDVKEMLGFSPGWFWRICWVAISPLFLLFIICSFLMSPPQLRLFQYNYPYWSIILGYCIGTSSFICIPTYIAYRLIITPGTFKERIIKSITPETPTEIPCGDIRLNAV
Text: (§1) In vitro testing for safety pharmacology and early ADMET (Absorption, Distribution, Metabolism, Excretion, Toxicity) studies of compound 109 were contracted out to CEREP (15318 NE 95th Street, Redmond, Wash., 98052, USA www.cerep.com) under a service agreement and included evaluation of inhibitory binding to a panel of 27 standard receptors and three transporters (See FIG. 60 (Table 31) and FIG. 61 (Table 32)) which included: adenosine receptors (A1 and A2A), adrenergic receptors (alpha 1, alpha 2, beta 1), angiotensin II receptor (AT1), benzodiazapene receptor (BZD), bradykinin receptor (B2), cholecystokinin receptor (CCK1), dopamine receptors (D1, D2S), endothelin receptor (ETA), GABA receptor (GABA), glutamate receptor (NMDA), histamine receptor (H1 central), melanocortin receptor (MC4), muscarinic receptor (M, non-selective), neurokinin receptor (NK1), neuropeptide Y receptor (Y), nicotinic receptor (neuronal, alpha-BGTX-insensitive), opiate receptor (non-selective opiate), orphanin receptor (ORL1), phencyclidine receptor (PCP), serotonin receptor (5-HT), sigma receptor (sigma non-selective), steroid receptor (glucocorticoid receptor, GR), and NE, DA, and 5-HT transporters.
(§2) The specific ligand binding to the receptors is defined as the difference between the total binding and the nonspecific binding determined in the presence of an excess of unlabelled ligand.

[2] = system: RIF^R M. tuberculosis isolate 2482; assay: microbe, parasite or virus in culture; format: cell-based; settings: Mycobacterium tuberculosis, read-out: MIC (BACTEC)
M. tuberculosis H37Rv = assay: In vivo efficacy, mice infected i.v. with M. tuberculosis, CFU in spleen and lungs; design: species or system C57BL/6 mice
[3] = system: RIF^R M. tuberculosis strain 3185; format: cell-based
human CYP2D6 = human CYP2D6 (Homo sapiens, UniProt P10635); assay: Metabolism by CYP2D6; format: in vitro ADME
human CYP2D6, sequence (P10635 whole entry): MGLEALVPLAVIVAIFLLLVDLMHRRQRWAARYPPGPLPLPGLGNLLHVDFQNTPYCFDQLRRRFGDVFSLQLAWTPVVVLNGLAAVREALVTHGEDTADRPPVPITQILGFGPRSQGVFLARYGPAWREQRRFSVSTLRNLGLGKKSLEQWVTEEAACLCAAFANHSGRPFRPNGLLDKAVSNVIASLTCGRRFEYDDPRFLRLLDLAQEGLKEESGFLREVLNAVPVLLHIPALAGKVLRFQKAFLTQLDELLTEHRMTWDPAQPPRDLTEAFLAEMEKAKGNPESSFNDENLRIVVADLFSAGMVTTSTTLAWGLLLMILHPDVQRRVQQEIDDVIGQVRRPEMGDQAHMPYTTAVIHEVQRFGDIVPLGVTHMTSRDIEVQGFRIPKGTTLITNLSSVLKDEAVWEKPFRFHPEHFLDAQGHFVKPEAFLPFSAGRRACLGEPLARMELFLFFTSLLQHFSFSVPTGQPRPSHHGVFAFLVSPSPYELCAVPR
Text: Two of the groups contained oxidized metabolites. […] Based on the finding that SQ109 was metabolized rapidly by CYP, it is possible that its antimycobacterial activity may come from one of its metabolites. It is conceivable that SQ109 is a prodrug and requires activation by mycobacterial CYP. We speculate that when SQ109 is used in combination with rifampicin, the latter induces certain CYP activity within the Mycobacteria. Elevated CYP activity activates the SQ109 prodrug more efficiently, resulting in an apparent synergistic activity of the two drugs.

[4] = system: monkey kidney cells (Vero); assay: In vitro toxicity, Vero cells; format: cell-based; settings: Primates
Procedure: Twenty six compounds (including 37, 59 and 109) were tested in an in vitro model of toxicity using monkey kidney cells (Vero) and human cervical cancer cells (HeLa) using methods well known to those skilled in the art. The data from this toxicity testing and the MIC data were used to calculate a selectivity index (SI), the ratio of IC50:MIC (Table 15). Selectivity Indexes were ranging from 1.76 to 16.67.

Candida albicans = assay: Spectrum of activity MIC, broth microdilution NCCLS M27-A2 (yeast); format: cell-based
Procedure: Compound 109 was tested against a representative panel of commonly encountered clinical microorganisms comprising opportunistic pathogens, target pathogens and normal human flora. The spectrum of activity of compound 109 was evaluated by performing recommended broth microdilution methods. NCCLS M27-A2, 2003 for yeast and NCCLS M38-A, 2003 for mold.

Dopamine DA transporter = target: T2, Dopamine DA transporter (Homo sapiens, UniProt Q01959); assay: CEREP transporter binding, DA; settings: tested at 10 μM; read-out: inhibition of control specific binding
T2 construct: CEREP (contract testing)
T2 sequence (Q01959 whole entry): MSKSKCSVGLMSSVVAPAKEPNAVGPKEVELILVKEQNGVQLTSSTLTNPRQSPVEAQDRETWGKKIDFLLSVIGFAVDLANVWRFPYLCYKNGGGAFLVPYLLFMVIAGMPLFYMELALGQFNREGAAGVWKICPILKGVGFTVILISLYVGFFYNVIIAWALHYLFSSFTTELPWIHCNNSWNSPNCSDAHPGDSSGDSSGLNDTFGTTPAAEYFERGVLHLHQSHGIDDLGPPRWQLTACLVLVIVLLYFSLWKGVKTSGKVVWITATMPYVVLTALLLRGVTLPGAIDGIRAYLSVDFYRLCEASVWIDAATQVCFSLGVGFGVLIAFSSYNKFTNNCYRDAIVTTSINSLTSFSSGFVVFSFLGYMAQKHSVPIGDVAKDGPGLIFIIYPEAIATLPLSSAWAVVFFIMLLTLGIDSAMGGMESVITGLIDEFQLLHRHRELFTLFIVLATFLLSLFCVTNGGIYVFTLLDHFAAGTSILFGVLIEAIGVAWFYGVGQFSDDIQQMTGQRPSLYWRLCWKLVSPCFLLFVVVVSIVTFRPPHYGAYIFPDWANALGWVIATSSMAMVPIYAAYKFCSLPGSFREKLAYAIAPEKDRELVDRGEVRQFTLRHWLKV
Text: as §1, §2

dopamine receptor D2S = target: T3, dopamine receptor D2S (Homo sapiens, UniProt P14416); assay: CEREP receptor binding, D2S; settings: tested at 10 μM; read-out: inhibition of control specific binding
T3 construct: CEREP (contract testing)
T3 sequence (P14416 1-414 isoform P14416-2): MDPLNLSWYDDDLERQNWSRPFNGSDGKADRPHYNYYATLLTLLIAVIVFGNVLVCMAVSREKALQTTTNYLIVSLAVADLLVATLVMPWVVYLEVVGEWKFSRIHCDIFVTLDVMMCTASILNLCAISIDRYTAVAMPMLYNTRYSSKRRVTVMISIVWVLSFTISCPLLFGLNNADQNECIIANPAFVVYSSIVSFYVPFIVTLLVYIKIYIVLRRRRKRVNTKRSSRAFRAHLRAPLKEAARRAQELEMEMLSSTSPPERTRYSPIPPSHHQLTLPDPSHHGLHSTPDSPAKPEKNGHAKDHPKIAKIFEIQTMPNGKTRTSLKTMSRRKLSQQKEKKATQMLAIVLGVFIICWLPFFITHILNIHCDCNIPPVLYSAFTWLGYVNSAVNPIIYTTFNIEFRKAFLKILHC
Text: as §1, §2

CC(C)=CCC/C(C)=C/CNCCNC1C2CC3CC(C2)CC1C3 (stereo not shown) [Compound 109, N-Geranyl-N′-(2-adamanthyl)ethane-1,2-diamine]
activity (M. avium): much less active | MIC (M. avium complex (MAC)): 8 to 32 µg/mL (≈ 24.2 to 96.8 µM) | inhibition at 10 µM [1]: 95% | MIC [2]: 0.32 µg/mL (≈ 0.968 µM) | difference with untreated control, spleen and lung (M. tuberculosis H37Rv; 0.1 mg/kg after 4 weeks of therapy, 5×10^6 CFU): minimal but sufficient difference with untreated control | activity in the spleen compared with EMB (M. tuberculosis H37Rv; 1 mg/kg and 10 mg/kg, 5×10^5 CFU, chemotherapy from day 20): equal to that of EMB at 100 mg/kg | activity in the lung compared with EMB (M. tuberculosis H37Rv; 10 mg/kg after 4 and 6 weeks, 5×10^5 CFU): more effective than EMB at 100 mg/kg | activity in spleen and lung compared with EMB (M. tuberculosis H37Rv; 10 mg/kg and 25 mg/kg, shorter model, 5×10^6 CFU, 4 weeks): equal to that of EMB at 100 mg/kg | activity (CFUs in spleen and lungs) compared with ethambutol (M. tuberculosis H37Rv; doses 1 and 10 mg/kg, orally by gavage): equal to that of ethambutol at 100 mg/kg | growth inhibition [3]: greater than 99% | x/y quotient ([3]; 0.5 MIC SQ109 + rifampicin 4 mg/L): 0.64 | x/y quotient ([3]; 0.5 MIC SQ109 + rifampicin 8 mg/L): 0.48 | x/y quotient ([3]; 0.5 MIC SQ109 + rifampicin 12 mg/L): 0.40 | x/y quotient ([3]; 0.5 MIC SQ109 + rifampicin 16 mg/L): 0.35 | metabolism by CYP (human CYP2D6): metabolized | IC50 [4]: 26 µM | MIC (Candida albicans): 4 to 8 µg/mL (≈ 12.1 to 24.2 µM) | inhibition at 10 µM (Dopamine DA transporter): 63% | inhibition at 10 µM (dopamine receptor D2S): 73%

— patent US8202910B2 (Sequella, Inc., priority 2006, dated 2012)
